Test results reported in the Kinase Knowledgebase extract (Sharma et al. 2016).
pIC50: −log10 of the molar value.

Experiments:
[1] = molecular target: PIK3CA, P42336 [Wild Type]; test: Inhibition of PIK3CA (Wild Type) Kinase Activity
PIK3CA = PIK3CA (UniProt P42336); test: Inhibition of PIK3CA Kinase Activity
Sequence of PIK3CA (P42336 whole entry, looked up): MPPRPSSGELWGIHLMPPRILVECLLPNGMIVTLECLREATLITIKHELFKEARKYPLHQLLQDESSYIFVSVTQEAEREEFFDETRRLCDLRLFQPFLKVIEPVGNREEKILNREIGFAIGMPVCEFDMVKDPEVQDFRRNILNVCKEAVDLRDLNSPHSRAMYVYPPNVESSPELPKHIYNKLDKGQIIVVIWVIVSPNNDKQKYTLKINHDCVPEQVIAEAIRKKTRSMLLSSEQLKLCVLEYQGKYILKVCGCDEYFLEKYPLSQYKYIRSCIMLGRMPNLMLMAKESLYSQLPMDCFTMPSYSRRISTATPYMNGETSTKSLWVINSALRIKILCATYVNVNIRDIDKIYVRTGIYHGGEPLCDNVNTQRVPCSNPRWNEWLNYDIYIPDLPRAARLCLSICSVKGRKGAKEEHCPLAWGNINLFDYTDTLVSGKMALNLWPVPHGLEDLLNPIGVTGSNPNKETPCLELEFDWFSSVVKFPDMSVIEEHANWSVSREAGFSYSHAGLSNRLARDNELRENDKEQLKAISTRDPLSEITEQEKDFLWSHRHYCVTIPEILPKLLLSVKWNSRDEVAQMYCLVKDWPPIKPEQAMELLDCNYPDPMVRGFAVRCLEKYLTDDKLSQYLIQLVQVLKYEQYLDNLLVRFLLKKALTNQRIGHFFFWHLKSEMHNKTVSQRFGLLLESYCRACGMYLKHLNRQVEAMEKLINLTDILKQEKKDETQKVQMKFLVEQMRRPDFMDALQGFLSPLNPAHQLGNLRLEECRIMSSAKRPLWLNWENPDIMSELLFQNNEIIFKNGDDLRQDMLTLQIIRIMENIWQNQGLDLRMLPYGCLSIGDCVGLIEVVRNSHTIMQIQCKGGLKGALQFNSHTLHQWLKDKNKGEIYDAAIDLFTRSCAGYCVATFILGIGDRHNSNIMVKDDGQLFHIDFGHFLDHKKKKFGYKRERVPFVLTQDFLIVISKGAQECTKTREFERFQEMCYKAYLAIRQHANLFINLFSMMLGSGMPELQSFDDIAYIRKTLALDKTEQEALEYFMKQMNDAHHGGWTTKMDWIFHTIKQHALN

Sequence of PIK3CA, P42336 [Wild Type] (P42336 whole entry, looked up): as above

Row | SMILES | pIC50 [1] | pIC50 (PIK3CA)
1 | O=c1c(-c2ccccc2)c(N2CCOCC2)oc2ccccc12 | < 3.70 | < 3.70
2 | CC(C)c1c(N2CCOCC2)oc2ccccc2c1=O | 4.29 | < 3.70
3 | CCCCc1c(N2CCOCC2)oc2ccccc2c1=O | 4.60 | 4.32
4 | Cc1c(N2CCOCC2)oc2ccccc2c1=O | 4.48 | 4.40
5 | CCc1c(N2CCOCC2)oc2ccccc2c1=O | 4.55 | 5.36
6 | CCCc1c(N2CCOCC2)oc2ccccc2c1=O | 4.51 | 4.17
7 | O=c1c(Cc2ccccc2)c(N2CCOCC2)oc2ccccc12 | < 3.70 | < 3.70
8 | O=c1cc(N2CCOCC2)oc2ccccc12 | 5.59 | 4.82
